From ChEMBL document CHEMBL4507304, “Data for DCP probe TP-021” (2021)

Key:
[1] = tested on: Tyrosine-protein kinase ABL1 (Homo sapiens), P00519 [F317I]; conditions: Compound concentration 1000.0 nM
[2] = tested on: Tyrosine-protein kinase ABL1 (Homo sapiens), P00519 [T315I]; conditions: Compound concentration 1000.0 nM
[3] = biological target: Aurora kinase A (Homo sapiens) (UniProt O14965); conditions: Compound concentration 1000.0 nM
[4] = biological target: Serine/threonine-protein kinase BRSK1 (Homo sapiens) (UniProt Q8TDC3); conditions: Compound concentration 1000.0 nM
[5] = biological target: Calcium/calmodulin-dependent protein kinase type II subunit beta (Homo sapiens) (UniProt Q13554); conditions: Compound concentration 1000.0 nM
Calcium/calmodulin-dependent protein kinase type II subunit beta (Homo sapiens), sequence (Q13554 whole entry): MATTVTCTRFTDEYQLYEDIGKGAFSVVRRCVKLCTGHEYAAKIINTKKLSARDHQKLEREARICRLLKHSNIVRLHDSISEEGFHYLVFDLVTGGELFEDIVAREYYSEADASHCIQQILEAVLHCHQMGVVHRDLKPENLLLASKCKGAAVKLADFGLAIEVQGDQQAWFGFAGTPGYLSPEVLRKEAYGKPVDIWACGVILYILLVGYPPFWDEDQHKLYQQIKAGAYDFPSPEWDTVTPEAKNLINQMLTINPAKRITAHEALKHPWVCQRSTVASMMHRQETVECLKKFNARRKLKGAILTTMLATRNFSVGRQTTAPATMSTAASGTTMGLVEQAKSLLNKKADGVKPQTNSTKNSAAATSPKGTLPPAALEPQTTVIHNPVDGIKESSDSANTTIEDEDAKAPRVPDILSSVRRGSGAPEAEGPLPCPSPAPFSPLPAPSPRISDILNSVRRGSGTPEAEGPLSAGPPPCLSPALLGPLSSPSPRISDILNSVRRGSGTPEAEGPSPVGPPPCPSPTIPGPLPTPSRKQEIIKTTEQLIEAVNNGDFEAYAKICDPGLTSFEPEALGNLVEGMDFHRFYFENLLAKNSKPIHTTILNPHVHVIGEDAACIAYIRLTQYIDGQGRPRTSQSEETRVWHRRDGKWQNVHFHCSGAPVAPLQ

[6] = biological target: Cyclin-dependent kinase 2 (Homo sapiens) (UniProt P24941); conditions: Compound concentration 1000.0 nM
[7] = biological target: Death-associated protein kinase 3 (Homo sapiens) (UniProt O43293); conditions: Compound concentration 1000.0 nM
[8] = biological target: Epithelial discoidin domain-containing receptor 1 (Homo sapiens) (UniProt Q08345); conditions: Compound concentration 1000.0 nM
[9] = tested on: Epidermal growth factor receptor (Homo sapiens), P00533 [L858R,T790M]; conditions: Compound concentration 1000.0 nM
[10] = biological target: Ephrin type-A receptor 1 (Homo sapiens) (UniProt P21709); conditions: Compound concentration 1000.0 nM
[11] = biological target: Ephrin type-B receptor 4 (Homo sapiens) (UniProt P54760); conditions: Compound concentration 1000.0 nM
[12] = biological target: Mitogen-activated protein kinase 6 (Homo sapiens) (UniProt Q16659); conditions: Compound concentration 1000.0 nM
[13] = biological target: Serine/threonine-protein kinase/endoribonuclease IRE1 (Homo sapiens) (UniProt O75460); conditions: Compound concentration 1000.0 nM
Serine/threonine-protein kinase/endoribonuclease IRE1 (Homo sapiens), sequence (O75460 19-977 limits assumed): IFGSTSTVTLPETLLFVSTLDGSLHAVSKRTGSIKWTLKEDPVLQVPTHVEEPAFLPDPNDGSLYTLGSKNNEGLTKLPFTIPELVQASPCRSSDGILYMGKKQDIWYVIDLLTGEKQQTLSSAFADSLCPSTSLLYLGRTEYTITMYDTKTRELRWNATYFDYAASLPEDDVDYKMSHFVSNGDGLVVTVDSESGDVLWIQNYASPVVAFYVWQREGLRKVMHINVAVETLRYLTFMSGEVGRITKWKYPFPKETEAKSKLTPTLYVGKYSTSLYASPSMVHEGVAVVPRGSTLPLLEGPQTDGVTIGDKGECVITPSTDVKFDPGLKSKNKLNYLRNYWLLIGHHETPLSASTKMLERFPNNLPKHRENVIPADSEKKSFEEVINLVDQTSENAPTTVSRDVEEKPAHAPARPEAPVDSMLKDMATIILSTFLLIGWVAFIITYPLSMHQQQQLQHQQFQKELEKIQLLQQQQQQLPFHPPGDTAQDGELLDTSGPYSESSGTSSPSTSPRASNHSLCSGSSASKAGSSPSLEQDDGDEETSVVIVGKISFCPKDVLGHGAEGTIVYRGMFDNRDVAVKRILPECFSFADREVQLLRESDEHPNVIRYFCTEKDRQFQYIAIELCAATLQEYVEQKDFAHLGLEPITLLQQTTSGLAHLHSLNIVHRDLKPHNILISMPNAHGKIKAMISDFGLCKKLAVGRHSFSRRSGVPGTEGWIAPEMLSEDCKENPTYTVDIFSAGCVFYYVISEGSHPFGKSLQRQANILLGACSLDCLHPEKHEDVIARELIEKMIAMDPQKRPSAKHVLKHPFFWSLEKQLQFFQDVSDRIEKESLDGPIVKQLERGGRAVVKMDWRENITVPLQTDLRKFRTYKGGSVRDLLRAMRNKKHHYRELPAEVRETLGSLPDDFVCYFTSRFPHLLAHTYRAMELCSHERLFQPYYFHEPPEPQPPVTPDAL

[14] = biological target: Rhodopsin kinase GRK7 (Homo sapiens) (UniProt Q8WTQ7); conditions: Compound concentration 1000.0 nM
[15] = biological target: Glycogen synthase kinase-3 beta (Homo sapiens) (UniProt P49841); conditions: Compound concentration 1000.0 nM
[16] = biological target: Hormonally up-regulated neu tumor-associated kinase (Homo sapiens) (UniProt P57058); conditions: Compound concentration 1000.0 nM
[17] = biological target: Inhibitor of nuclear factor kappa-B kinase subunit beta (Homo sapiens) (UniProt O14920); conditions: Compound concentration 1000.0 nM
[18] = biological target: Interleukin-1 receptor-associated kinase 3 (Homo sapiens) (UniProt Q9Y616); conditions: Compound concentration 1000.0 nM
Interleukin-1 receptor-associated kinase 3 (Homo sapiens), sequence (Q9Y616 whole entry): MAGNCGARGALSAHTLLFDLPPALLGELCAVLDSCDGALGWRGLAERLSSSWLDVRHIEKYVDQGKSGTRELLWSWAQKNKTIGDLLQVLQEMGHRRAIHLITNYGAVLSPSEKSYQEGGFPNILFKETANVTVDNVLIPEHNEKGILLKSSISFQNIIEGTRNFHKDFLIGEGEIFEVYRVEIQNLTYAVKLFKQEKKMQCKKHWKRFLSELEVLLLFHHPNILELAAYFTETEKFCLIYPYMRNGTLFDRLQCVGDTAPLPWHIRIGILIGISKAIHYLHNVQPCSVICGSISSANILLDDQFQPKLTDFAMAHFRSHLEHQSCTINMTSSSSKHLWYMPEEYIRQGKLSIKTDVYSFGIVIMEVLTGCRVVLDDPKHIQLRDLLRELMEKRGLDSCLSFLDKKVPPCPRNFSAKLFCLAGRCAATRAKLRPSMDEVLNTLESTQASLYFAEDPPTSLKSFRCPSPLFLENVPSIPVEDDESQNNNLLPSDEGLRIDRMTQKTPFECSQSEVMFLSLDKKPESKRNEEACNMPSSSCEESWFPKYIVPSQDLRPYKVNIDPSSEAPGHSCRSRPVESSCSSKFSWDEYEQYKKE

[19] = tested on: Mast/stem cell growth factor receptor Kit (Homo sapiens), P10721 [V559D]; conditions: Compound concentration 1000.0 nM
[20] = biological target: Mast/stem cell growth factor receptor Kit (Homo sapiens) (UniProt P10721); conditions: Compound concentration 1000.0 nM
[21] = biological target: LIM domain kinase 2 (Homo sapiens) (UniProt P53671); conditions: Compound concentration 1000.0 nM
[22] = biological target: Serine/threonine-protein kinase STK11 (Homo sapiens) (UniProt Q15831); conditions: Compound concentration 1000.0 nM
[23] = tested on: Leucine-rich repeat serine/threonine-protein kinase 2 (Homo sapiens), Q5S007 [G2019S]; conditions: Compound concentration 1000.0 nM
[24] = biological target: Mitogen-activated protein kinase kinase kinase 13 (Homo sapiens) (UniProt O43283); conditions: Compound concentration 1000.0 nM
[25] = biological target: Mitogen-activated protein kinase kinase kinase 1 (Homo sapiens) (UniProt Q13233); conditions: Compound concentration 1000.0 nM
[26] = biological target: Mitogen-activated protein kinase kinase kinase 2 (Homo sapiens) (UniProt Q9Y2U5); conditions: Compound concentration 1000.0 nM
Mitogen-activated protein kinase kinase kinase 2 (Homo sapiens), sequence (Q9Y2U5 whole entry): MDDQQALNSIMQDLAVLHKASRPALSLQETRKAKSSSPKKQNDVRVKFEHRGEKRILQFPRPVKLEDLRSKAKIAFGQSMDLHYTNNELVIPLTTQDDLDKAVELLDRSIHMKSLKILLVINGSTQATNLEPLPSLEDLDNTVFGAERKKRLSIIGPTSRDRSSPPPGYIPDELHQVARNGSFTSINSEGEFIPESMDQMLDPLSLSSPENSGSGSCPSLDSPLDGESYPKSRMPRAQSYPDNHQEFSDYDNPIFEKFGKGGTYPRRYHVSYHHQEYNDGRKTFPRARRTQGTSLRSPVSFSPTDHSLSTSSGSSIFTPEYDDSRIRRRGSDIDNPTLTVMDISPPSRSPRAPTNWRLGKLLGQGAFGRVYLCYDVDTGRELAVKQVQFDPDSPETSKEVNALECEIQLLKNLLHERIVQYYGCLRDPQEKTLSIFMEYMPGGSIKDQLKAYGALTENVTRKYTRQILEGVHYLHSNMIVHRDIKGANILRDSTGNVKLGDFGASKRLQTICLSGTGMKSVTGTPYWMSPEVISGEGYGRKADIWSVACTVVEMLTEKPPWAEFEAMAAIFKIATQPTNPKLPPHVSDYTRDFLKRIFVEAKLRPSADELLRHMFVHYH

[27] = tested on: Hepatocyte growth factor receptor (Homo sapiens), P08581 [M1250T]; conditions: Compound concentration 1000.0 nM
[28] = biological target: Dual specificity mitogen-activated protein kinase kinase 7 (Homo sapiens) (UniProt O14733); conditions: Compound concentration 1000.0 nM
[29] = biological target: Mitogen-activated protein kinase kinase kinase 9 (Homo sapiens) (UniProt P80192); conditions: Compound concentration 1000.0 nM
[30] = biological target: Serine/threonine-protein kinase Nek4 (Homo sapiens) (UniProt P51957); conditions: Compound concentration 1000.0 nM
Serine/threonine-protein kinase Nek4 (Homo sapiens), sequence (P51957 whole entry, looked up): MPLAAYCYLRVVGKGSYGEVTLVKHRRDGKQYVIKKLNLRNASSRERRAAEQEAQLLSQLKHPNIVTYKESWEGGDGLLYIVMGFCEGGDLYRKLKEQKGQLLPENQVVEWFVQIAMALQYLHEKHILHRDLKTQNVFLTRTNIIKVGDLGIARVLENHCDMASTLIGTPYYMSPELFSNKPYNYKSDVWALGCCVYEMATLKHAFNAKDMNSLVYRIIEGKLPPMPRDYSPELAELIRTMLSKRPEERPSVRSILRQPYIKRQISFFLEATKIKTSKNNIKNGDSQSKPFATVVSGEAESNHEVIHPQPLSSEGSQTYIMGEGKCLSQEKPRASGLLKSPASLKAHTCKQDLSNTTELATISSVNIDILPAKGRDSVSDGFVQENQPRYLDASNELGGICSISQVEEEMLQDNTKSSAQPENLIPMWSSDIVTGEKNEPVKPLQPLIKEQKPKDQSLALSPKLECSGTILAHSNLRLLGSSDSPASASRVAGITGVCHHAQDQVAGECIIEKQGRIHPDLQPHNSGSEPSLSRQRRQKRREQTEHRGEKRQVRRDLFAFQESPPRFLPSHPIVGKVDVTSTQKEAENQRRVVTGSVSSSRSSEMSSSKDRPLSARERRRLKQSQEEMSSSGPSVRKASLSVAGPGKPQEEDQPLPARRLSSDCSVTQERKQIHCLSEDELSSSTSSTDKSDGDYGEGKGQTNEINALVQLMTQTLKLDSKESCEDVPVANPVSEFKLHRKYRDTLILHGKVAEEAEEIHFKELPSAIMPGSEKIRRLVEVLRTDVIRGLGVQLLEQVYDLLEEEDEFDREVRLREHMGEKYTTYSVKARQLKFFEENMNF

[31] = biological target: Serine/threonine-protein kinase Nek7 (Homo sapiens) (UniProt Q8TDX7); conditions: Compound concentration 1000.0 nM
[32] = biological target: Serine/threonine-protein kinase PAK 3 (Homo sapiens) (UniProt O75914); conditions: Compound concentration 1000.0 nM
Serine/threonine-protein kinase PAK 3 (Homo sapiens), sequence (O75914 whole entry, looked up): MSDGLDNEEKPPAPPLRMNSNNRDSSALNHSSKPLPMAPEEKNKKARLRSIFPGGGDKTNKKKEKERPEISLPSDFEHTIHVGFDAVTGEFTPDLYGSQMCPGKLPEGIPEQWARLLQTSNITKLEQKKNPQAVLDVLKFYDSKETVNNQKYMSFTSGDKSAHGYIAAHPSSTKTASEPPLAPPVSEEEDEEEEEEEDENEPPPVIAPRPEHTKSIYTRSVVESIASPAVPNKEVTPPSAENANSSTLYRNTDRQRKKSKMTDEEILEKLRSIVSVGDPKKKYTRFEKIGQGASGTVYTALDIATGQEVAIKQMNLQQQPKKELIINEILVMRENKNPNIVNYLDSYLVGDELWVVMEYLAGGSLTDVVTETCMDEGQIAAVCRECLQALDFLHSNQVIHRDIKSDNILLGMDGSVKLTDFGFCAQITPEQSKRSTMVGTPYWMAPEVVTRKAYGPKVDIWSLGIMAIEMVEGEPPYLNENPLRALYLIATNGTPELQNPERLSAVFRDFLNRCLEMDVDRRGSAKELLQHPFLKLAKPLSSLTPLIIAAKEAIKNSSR

[33] = biological target: Cyclin-dependent kinase 16 (Homo sapiens) (UniProt Q00536); conditions: Compound concentration 1000.0 nM
[34] = biological target: Phosphorylase b kinase regulatory subunit alpha, liver isoform (Homo sapiens) (UniProt P46019); conditions: Compound concentration 1000.0 nM
[35] = biological target: Receptor-interacting serine/threonine-protein kinase 2 (Homo sapiens) (UniProt O43353); conditions: Compound concentration 1000.0 nM
Receptor-interacting serine/threonine-protein kinase 2 (Homo sapiens), sequence (O43353 whole entry): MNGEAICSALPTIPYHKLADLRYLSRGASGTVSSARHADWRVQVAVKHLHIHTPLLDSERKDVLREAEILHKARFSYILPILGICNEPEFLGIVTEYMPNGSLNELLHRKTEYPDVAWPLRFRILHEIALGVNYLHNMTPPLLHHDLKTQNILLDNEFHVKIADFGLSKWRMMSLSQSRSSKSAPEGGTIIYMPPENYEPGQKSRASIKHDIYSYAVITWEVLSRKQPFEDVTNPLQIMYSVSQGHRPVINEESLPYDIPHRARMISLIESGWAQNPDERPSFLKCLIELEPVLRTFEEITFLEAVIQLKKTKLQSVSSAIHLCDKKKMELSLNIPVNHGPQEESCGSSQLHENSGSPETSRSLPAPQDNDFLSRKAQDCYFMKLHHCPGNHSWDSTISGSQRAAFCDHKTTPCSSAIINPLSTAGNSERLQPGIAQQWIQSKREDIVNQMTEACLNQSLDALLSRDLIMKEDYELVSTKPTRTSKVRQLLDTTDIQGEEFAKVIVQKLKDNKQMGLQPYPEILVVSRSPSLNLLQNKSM

[36] = biological target: Ribosomal protein S6 kinase alpha-5 (Homo sapiens) (UniProt O75582); conditions: Compound concentration 1000.0 nM
[37] = biological target: Ribosomal protein S6 kinase alpha-3 (Homo sapiens) (UniProt P51812); conditions: Compound concentration 1000.0 nM
[38] = biological target: Serine/threonine-protein kinase 16 (Homo sapiens) (UniProt O75716); conditions: Compound concentration 1000.0 nM
[39] = biological target: BDNF/NT-3 growth factors receptor (Homo sapiens) (UniProt Q16620); conditions: Compound concentration 1000.0 nM
[40] = biological target: Non-receptor tyrosine-protein kinase TYK2 (Homo sapiens) (UniProt P29597); conditions: Compound concentration 1000.0 nM
[41] = biological target: Serine/threonine-protein kinase WNK1 (Homo sapiens) (UniProt Q9H4A3); conditions: Compound concentration 1000.0 nM
[42] = biological target: Mitogen-activated protein kinase kinase kinase 20 (Homo sapiens) (UniProt Q9NYL2); conditions: Compound concentration 1000.0 nM
[43] = biological target: 5-hydroxytryptamine receptor 2B (Homo sapiens) (UniProt P41595); conditions: Compound concentration 10.0 uM
[44] = biological target: D(3) dopamine receptor (Homo sapiens) (UniProt P35462); conditions: Compound concentration 10.0 uM
[45] = biological target: Kappa-type opioid receptor (Homo sapiens) (UniProt P41145); conditions: Compound concentration 10.0 uM

N#Cc1ccc(Nc2ccc3[nH]c(=O)[nH]c3c2)c(Cl)c1
inactive: residual activity [1] 81% | residual activity [2] 90% | residual activity [3] 87% | residual activity [4] 100% | residual activity [5] 91% | residual activity [6] 93% | residual activity [7] 92% | residual activity [8] 100% | residual activity [9] 79% | residual activity [10] 91% | residual activity [11] 98% | residual activity [12] 100% | residual activity [13] 86% | residual activity [14] 100% | residual activity [15] 96% | residual activity [16] 98% | residual activity [17] 89% | residual activity [18] 94% | residual activity [19] 100% | residual activity [20] 100% | residual activity [21] 100% | residual activity [22] 100% | residual activity [23] 93% | residual activity [24] 100% | residual activity [25] 79% | residual activity [26] 100% | residual activity [27] 100% | residual activity [28] 100% | residual activity [29] 100% | residual activity [30] 100% | residual activity [31] 100% | residual activity [32] 100% | residual activity [33] 100% | residual activity [34] 100% | residual activity [35] 70% | residual activity [36] 100% | residual activity [37] 87% | residual activity [38] 91% | residual activity [39] 100% | residual activity [40] 100% | residual activity [41] 100% | residual activity [42] 100% | inhibition [43] 11% | inhibition [44] 3.81% | inhibition [45] 8.98%

O=C1CCc2cc(Nc3cc(OC4CCOCC4)c([N+](=O)[O-])cc3Cl)ccc2N1
inactive: residual activity [1] 92% | residual activity [2] 99% | residual activity [3] 87% | residual activity [4] 100% | residual activity [5] 90% | residual activity [6] 88% | residual activity [7] 91% | residual activity [8] 94% | residual activity [9] 76% | residual activity [10] 81% | residual activity [11] 100% | residual activity [12] 100% | residual activity [13] 99% | residual activity [14] 100% | residual activity [15] 96% | residual activity [16] 93% | residual activity [17] 100% | residual activity [18] 98% | residual activity [19] 100% | residual activity [20] 99% | residual activity [21] 100% | residual activity [22] 100% | residual activity [23] 100% | residual activity [24] 91% | residual activity [25] 65% | residual activity [26] 100% | residual activity [27] 93% | residual activity [28] 100% | residual activity [29] 90% | residual activity [30] 100% | residual activity [31] 87% | residual activity [32] 100% | residual activity [33] 88% | residual activity [34] 100% | residual activity [35] 53% | residual activity [36] 86% | residual activity [37] 100% | residual activity [38] 93% | residual activity [39] 100% | residual activity [40] 94% | residual activity [41] 86% | residual activity [42] 81% | inhibition [43] 3.31% | inhibition [44] 35.4% | inhibition [45] 12.4%
